Earlier results, collected in patent US9738932B2, “Biomarkers for cardiovascular side-effects induced by cox-2 inhibitory compounds” (FIRALIS SAS, priority 2005, dated 2017).

Tested on: CXCL10 synthesis
Conditions: by preventing PGE2 production and PKA activation; cited from earlier work

Structure (SMILES): CS(=O)(=O)Nc1ccc([N+](=O)[O-])cc1OC1CCCCC1 [NS398]
- effect on CXCL10 synthesis upon INFγ stimulation: potentiates
